Test results reported in patent US6951840B2, “Lipoglycopeptide antibiotics” (priority 2001, dated 2005).
Converted amounts (≈) assume the structure as drawn.

Columns and labels:
S. pneumoniae SPase I = target: T1, S. pneumoniae SPase I (Streptococcus pneumoniae serotype 4, UniProt O07344); test: Fluorimetric IC50 determination, S. pneumoniae signal peptidase; type: biochemical; conditions: 50 nM SPase I, 50 μM fluorogenic substrate, 37° C., 1-2 hrs
T1 construct: made in house
Protocol: Procedures for cloning, expression and purification of S. pneumoniae Spase can be found in reference (Peng, et al. (2001) J. Bacterol. 183, 621-627).
(§1) “IC50” refers to the concentration of inhibitor required to achieve a half-maximal degree of inhibition of SPase I. The IC50 is determined by a fluorimetric assay as described in Peng, et al. (2001) J. Bacterol. 183, 621-627, with a fluorogenic peptide used as substrate as described therein. The reaction is performed in 50 μls of reaction mixture containing 50 nM of either E. coli or S. pneumoniae SPase I, 50 μM substrate, and a series dilution of inhibitor. Inhibitors are dissolved in dimethylsulfoxide (DMSO). Compounds in DMSO are diluted in reaction buffer. The final DMSO concentration in the reaction mixtures is 2% (v/v). Reaction mixtures are incubated at 37° C. for 1-2 hrs. The IC50 is calculated using a nonlinear regression method with GraphPad Prism™ Software (GraphPad G3-A13127-507). The inhibitory activity of lipoglycopeptides 1-8 against both E. coli and S. pneumoniae signal peptidases, are summarized in Table 7.

E. coli EL744 = test: Broth micro-dilution MIC, E. coli EL744; type: cell-based; conditions: Escherichia coli, MHII broth, 23-24 hr at 37° C.
Protocol: (§2) The in vitro antibacterial activity of lipoglycopeptides 1, 2, 5, 6, 7, and 8 is determined according to the National Committee for Clinical Laboratory Standards (NCCLS) recommendations for broth micro-dilution assay using 2xsTH (Todd Hewitt broth), MHII (cation adjusted Mueller Hinton broth) or HTM medium (Haemophilus Test Medium) (Gerhardt, P., et al., (1994) Methods for General and Molecular Bacteriology. American Society for Microbiology, Washington, D.C.). Bacterial strains used for antibacterial assay include both gram-positive and gram-negative bacteria: S. pneumoniae R6, Staphylococcus aureus SA027, Haemophilus influenzae ATCC 49247, E. coli EL683 and EL744. A two-fold serial dilution of the test compound is prepared in 100% DMSO. The assay is performed in the wells of a sterile 96-well microplate, that is inoculated with bacterial cell suspension in growth medium or broth as above. The final volume is 100 μl cell suspension, containing 2.5% DMSO. The starting concentration of bacterial cells is 5×10^5 CFU/ml. The 96-well microplate is incubated for 23-24 hr at 37° C. in an ambient air incubator. Upon completion of incubation, the MIC (minimal inhibitory concentration) is determined by visual examination of the microplate with the aid of a magnifying mirror apparatus. The MIC is the lowest concentration of compound tested that results in no visible sign of bacterial growth.

[1] = tested on: Haemophilus influenzae ATCC 49247; test: Broth micro-dilution MIC, H. influenzae ATCC 49247; type: cell-based; conditions: ATCC49247, read-out: MIC, H. influenzae ATCC49247
Protocol: as §2

[2] = tested on: Staphylococcus aureus (ATCC 33592); test: Beta-lactamase release assay; type: cell-based; conditions: beta-lactamase-producing S. aureus ATCC 33592, 2 hr incubation with inhibitor
Protocol: In Staphylococcus aureus, signal peptidase cleaves beta-lactamase, resulting in the release of beta-lactaidase into the medium. In this example, the ability of lipoglycopeptides 1,2, and 5 to inhibit the release of beta-lactamase from Staphylococcus aureus into the medium is examined.
Staphylococcus aureus (ATCC 33592) cells are grown overnight in a series dilution in Brain Heart Infusion (BHI) (Gerhardt, P., et al., (1994) Methods for General and Molecular Bacteriology. American Society for Microbiology, Washington, D.C.) medium in a 37° C. incubator containing 5% CO2. Cultures with an OD660 less than 0.3 are centrifuged, and the cells are washed once with fresh BHI medium. The cells are then resuspended in fresh BHI medium to an initial OD660 of 0.15-0.2. At the same time, the selected inhibitor is diluted from the DMSO stock solution into BHI medium at different concentrations, and is added to the cells which are then incubated at 37° C. under 5% CO2 for 2 hr. The final DMSO concentration in the reaction mixtures is 1% (v/v). The OD660 is measured at the end of incubation. The cells are centrifuged, and the supernatant is saved for the determination of secreted beta-lactamase. The pellet is washed once with fresh BHI medium, re-suspended in the equivalent volume of fresh BHI medium, frozen, and then thawed […]. for three cycles, and used for the determination of retained beta-lactamase. For the determination of beta-lactamase activity, 100 μl reaction mixture (30-50 μls of supernatant or lysed cells) is incubated with 250 μM nitrocefin in 1×PBS buffer (phosphate buffered saline) (pH 6.8) at 37° C. for 30-60 min. Nitrocefin is the substrate for beta-lactamase. Cleavage of nitrocefin results in an increase in absorbance at 482 nm. The absorbance at 482 nm (OD482) is measured at the beginning and at the end of the reaction. The secreted and the retained beta-lactamase activities are calculated based upon the ΔOD482.

E. coli SPase I [3] = target: T2, E. coli SPase I (Escherichia coli, UniProt P00803, I81L); test: Fluorimetric IC50 determination, E. coli signal peptidase; type: biochemical
T2 construct: His-tag (inferred from vector pET15b cloned at NdeI/XhoI and Ni-NTA purification); made in house; host or cells: E. coli BL21(DE3)
Protocol: Cloning and expression of the E. coli SPase I gene is performed by polymerase chain reaction (PCR) using E. coli genomic DNA as a template and two oligonucleotides as primers: 5′-[…]-3′ (SEQ ID NO: 1) and 5′-[…]-3′ (SEQ ID NO:2). The primers are designed to contain NdeI and XhoI restriction sites at the 5′-ends, respectively, to enable cloning into the bacterial expression vector pET15b (Novagen). The primers are synthesized based upon the published sequence of E. coli SPase I (Wolfe, et al. (1983) J. Biol. Chem. 258, 12073-12080).
Expression vector pET15b-E. coli SPase is constructed by replacing the NdeI/XhoI fragment of pET15b with the PCR fragment that is purified and digested with Ndel and XhoI. The identity of the cloned gene is confirmed by DNA sequencing. For expression of E. coli SPase I, E. coli strain BL21(DE3)(Stratagene) is transformed with pET15b-E. coli SPase, and grown and induced with 0.4 mM IPTG (isopropryl-1-thio-β-D-galactopyranoside) as described in Studier, et al. (1990) Methods Enzymol. 185, 60-89.
For purification of E. coli SPase T, one liter of IPTG-induced E. coli BL21(DE3) cells harboring pET15b-E coli SPase is harvested by centrifugation and re-suspended in 50 ml of lysis buffer containing 50 mM Na2HPO4, 300 mM NaCl, pH 8.0, and sonicated 5 min. on ice. The lysate is then centrifuged at 50,000 g for 1 hr at 4° C. The resultant supernatant is discarded, the pellet is re-suspended, and sonicated for 5 min. in 20 ml of lysis buffer containing 8 M urea. After centrifugation at 50,000 g for 1 hr at 4° C., the supernatant is loaded onto a 5 ml column of pre-equilibrated Ni-nitrilotriacetic acid (NTA) that is then washed with 120 ml of refolding buffer (50 mM NaH2PO4, 300 mM NaCl, 15 mM imidazole) containing a continuous urea gradient from 6 to 1 M with a flow rate of 1 ml/min. The protein is eluted with 20 ml of elution buffer (20 mM Tris-HCl, pH 8.0, 20% glycerol, 1 M urea and 100 mM imidazole), and 1 ml fractions are collected and utilized for enzyme assay.
as §1
Target sequence in this assay (P00803 77-324 I81L): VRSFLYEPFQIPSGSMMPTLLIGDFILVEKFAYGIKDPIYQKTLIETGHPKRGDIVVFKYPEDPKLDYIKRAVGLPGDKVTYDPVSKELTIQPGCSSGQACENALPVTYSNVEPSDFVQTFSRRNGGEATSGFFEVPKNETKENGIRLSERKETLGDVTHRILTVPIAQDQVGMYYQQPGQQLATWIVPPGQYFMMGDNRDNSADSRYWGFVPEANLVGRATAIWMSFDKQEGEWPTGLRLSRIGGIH

E. coli SPase I [4] = target: T2, E. coli SPase I; test: Kinetic analysis by HPLC assay with non-fluorogenic peptide substrate; type: biochemical
Protocol: A kinetic analysis is performed with E. coli SPase I and the non-fluorogenic peptide substrate by HPLC assay as described in Peng, et al. (2001) J. Bacterol. 183, 621-627. 50 μl of reaction volume contains 50 nM E. coli SPase I with different concentrations of substrate and lipoglycopepetide inhibitors. The reaction mixtures are incubated at room temperature for 30 mins., and terminated by the addition of an equal amount of 8 M urea. The final concentration of DMSO in the reaction mixtures is 2%. Substrate cleavage is analyzed by HPLC as described in Peng, et al. (2001) J. Bacterol. 183, 621-627. The initial rate, K1, and inhibition type of the inhibitor is calculated with Sigma Plot 2000, Version 6.2 with enzyme kinetics module (SPSS, Inc., Cat No. 3703564).

E. coli EL683 = test: Broth micro-dilution MIC, E. coli EL683; type: cell-based; conditions: Escherichia coli, MHII broth, 23-24 hr at 37° C.
Protocol: as §2

[5] = tested on: Staphylococcus aureus SA027; test: Broth micro-dilution MIC, S. aureus SA027; type: cell-based; conditions: MHII broth, 23-24 hr at 37° C.
Protocol: as §2

S. pneumoniae R6 = test: Broth micro-dilution MIC, S. pneumoniae R6; type: cell-based; conditions: 23-24 hr at 37° C.; for MIC, S. pneumoniae R6: 2XsTH broth; for MIC: Streptococcus pneumoniae, R6, 2XsTH broth
Protocol: as §2

T1 sequence (O07344 whole entry): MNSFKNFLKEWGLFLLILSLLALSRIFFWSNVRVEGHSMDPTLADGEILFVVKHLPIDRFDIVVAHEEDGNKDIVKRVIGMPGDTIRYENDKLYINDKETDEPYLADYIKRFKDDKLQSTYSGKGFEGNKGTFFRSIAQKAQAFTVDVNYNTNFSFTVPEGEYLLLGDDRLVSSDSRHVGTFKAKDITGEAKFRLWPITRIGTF

Structure (SMILES) | IC50 (S. pneumoniae SPase I) [µM] | MIC (E. coli EL744) [µg/mL] | MIC [1] [µg/mL] | inhibition of secretion of beta-lactamase [2] | IC50 (E. coli SPase I [3]) [nM] | Ki (E. coli SPase I [4]) [nM] | MIC (E. coli EL683) [µg/mL] | MIC [5] [µg/mL] | MIC, S. pneumoniae R6 (S. pneumoniae R6) [µg/mL] | MIC (S. pneumoniae R6) [µg/mL]
CC(C)CCCCCCCCCCCCC(=O)N(C)C(CO)C(=O)NC(C)C(=O)NCC(=O)N(C)C1C(=O)NC(C)C(=O)NC(C(=O)O)Cc2ccc(O)c(c2)-c2cc1ccc2OC1OC(C)C(O)C(O)C1O (stereo not shown) [Compound 5] | 2.4 | 16 (≈ 15.6 µM) | > 64 | inhibit the secretion of beta-lactamase | 130 | 57.5 | 4 (≈ 3.89 µM) | > 64 | 8 (≈ 7.79 µM) | 16 (≈ 15.6 µM)
CC(C)CCCCCCCCCCCCC(=O)N(C)C(CO)C(=O)NC(C)C(=O)NCC(=O)N(C)C1C(=O)NC(C)C(=O)NC(C(=O)O)Cc2ccc(O)c(c2)-c2cc1cc(O)c2OC1OC(C)C(O)C(O)C1O (stereo not shown) [Compound 1] | 7.1 | 32 (≈ 30.7 µM) | 64 (≈ 61.3 µM) | inhibit the secretion of beta-lactamase | 170 | – | 8 (≈ 7.67 µM) | 32 (≈ 30.7 µM) | – | 16 (≈ 15.3 µM)
CC(C)CCCCCCCCCCC(=O)N(C)C(CO)C(=O)NC(C)C(=O)NCC(=O)N(C)C1C(=O)NC(C)C(=O)NC(C(=O)O)Cc2ccc(O)c(c2)-c2cc1cc(O)c2OC1OC(C)C(O)C(O)C1O (stereo not shown) [Compound 8] | 24.9 | 8 (≈ 7.88 µM) | > 64 | – | 110 | 110 | – | > 64 | – | > 64
CC(C)CCCCCCCCCCCC(=O)N(C)C(CO)C(=O)NC(C)C(=O)NCC(=O)N(C)C1C(=O)NC(C)C(=O)NC(C(=O)O)Cc2ccc(O)c(c2)-c2cc1ccc2OC1OC(C)C(O)C(O)C1O (stereo not shown) [Compound 3] | 7 | – | – | – | 130 | – | – | – | – | –
CCCCCCCCCCCCCC(=O)N(C)C(CO)C(=O)NC(C)C(=O)NCC(=O)N(C)C1C(=O)NC(C)C(=O)NC(C(=O)O)Cc2ccc(O)c(c2)-c2cc1ccc2OC1OC(C)C(O)C(O)C1O (stereo not shown) [Compound 6] | 6.6 | 8 (≈ 8.01 µM) | > 64 | – | 110 | – | – | > 64 | – | 64 (≈ 64.1 µM)
CCCCCCCCCCCCCCCC(=O)N(C)C(CO)C(=O)NC(C)C(=O)NCC(=O)N(C)C1C(=O)NC(C)C(=O)NC(C(=O)O)Cc2ccc(O)c(c2)-c2cc1cc(O)c2OC1OC(C)C(O)C(O)C1O (stereo not shown) [Compound 2] | 10.3 | 32 (≈ 30.7 µM) | 64 (≈ 61.3 µM) | inhibit the secretion of beta-lactamase | 190 | 158 | 8 (≈ 7.67 µM) | 64 (≈ 61.3 µM) | 16 (≈ 15.3 µM) | 8 (≈ 7.67 µM)
CCCCCCCCCCCCCCC(=O)N(C)C(CO)C(=O)NC(C)C(=O)NCC(=O)N(C)C1C(=O)NC(C)C(=O)NC(C(=O)O)Cc2ccc(O)c(c2)-c2cc1ccc2OC1OC(C)C(O)C(O)C1O (stereo not shown) [Compound 4] | 5.9 | – | – | – | 130 | – | – | – | – | –
CC(C)CCCCCCCCCCC(=O)N(C)C(CO)C(=O)NC(C)C(=O)NCC(=O)N(C)C1C(=O)NC(C)C(=O)NC(C(=O)O)Cc2ccc(O)c(c2)-c2cc1ccc2OC1OC(C)C(O)C(O)C1O (stereo not shown) [Compound 7] | 6.1 | 16 (≈ 16 µM) | > 64 | – | 110 | 50.4 | – | > 64 | – | > 64
